Laboratory results reported in US10087185B2 (Janssen Pharmaceutica NV, priority 2016, dated 2018).

target: TARP γ8 dependent AMPA receptor (GRIA1o-CACNG8 fusion construct) (Homo sapiens (Human), UniProt P42261+Q8WXS5); experiment: Calcium flux assay (FLIPR), inhibition of glutamate response of GluA1o-γ8 channel; assay type: cell-based; conditions: HEK293 cells stably expressing GRIA1o-CACNG8 fusion; calcium flux after 15 μM glutamate; negative log of the IC50 in molar
Summary of the method: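 HEK293 clonal line stably expressing a GRIA1o-CACNG8 fusion (1:1 GluA1o:γ8), loaded with Calcium-5/6 dye plus compound in HEPES buffer pH 7.4. FLIPR calcium flux read after 15 μM glutamate; normalized to no-compound and 10 μM CP465022 controls. Four-parameter logistic fit gives IC50, reported as pIC50.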

Sequence of TARP γ8 dependent AMPA receptor (GRIA1o-CACNG8 fusion construct) (P42261 other isoform, or with tags, fused parts or gaps): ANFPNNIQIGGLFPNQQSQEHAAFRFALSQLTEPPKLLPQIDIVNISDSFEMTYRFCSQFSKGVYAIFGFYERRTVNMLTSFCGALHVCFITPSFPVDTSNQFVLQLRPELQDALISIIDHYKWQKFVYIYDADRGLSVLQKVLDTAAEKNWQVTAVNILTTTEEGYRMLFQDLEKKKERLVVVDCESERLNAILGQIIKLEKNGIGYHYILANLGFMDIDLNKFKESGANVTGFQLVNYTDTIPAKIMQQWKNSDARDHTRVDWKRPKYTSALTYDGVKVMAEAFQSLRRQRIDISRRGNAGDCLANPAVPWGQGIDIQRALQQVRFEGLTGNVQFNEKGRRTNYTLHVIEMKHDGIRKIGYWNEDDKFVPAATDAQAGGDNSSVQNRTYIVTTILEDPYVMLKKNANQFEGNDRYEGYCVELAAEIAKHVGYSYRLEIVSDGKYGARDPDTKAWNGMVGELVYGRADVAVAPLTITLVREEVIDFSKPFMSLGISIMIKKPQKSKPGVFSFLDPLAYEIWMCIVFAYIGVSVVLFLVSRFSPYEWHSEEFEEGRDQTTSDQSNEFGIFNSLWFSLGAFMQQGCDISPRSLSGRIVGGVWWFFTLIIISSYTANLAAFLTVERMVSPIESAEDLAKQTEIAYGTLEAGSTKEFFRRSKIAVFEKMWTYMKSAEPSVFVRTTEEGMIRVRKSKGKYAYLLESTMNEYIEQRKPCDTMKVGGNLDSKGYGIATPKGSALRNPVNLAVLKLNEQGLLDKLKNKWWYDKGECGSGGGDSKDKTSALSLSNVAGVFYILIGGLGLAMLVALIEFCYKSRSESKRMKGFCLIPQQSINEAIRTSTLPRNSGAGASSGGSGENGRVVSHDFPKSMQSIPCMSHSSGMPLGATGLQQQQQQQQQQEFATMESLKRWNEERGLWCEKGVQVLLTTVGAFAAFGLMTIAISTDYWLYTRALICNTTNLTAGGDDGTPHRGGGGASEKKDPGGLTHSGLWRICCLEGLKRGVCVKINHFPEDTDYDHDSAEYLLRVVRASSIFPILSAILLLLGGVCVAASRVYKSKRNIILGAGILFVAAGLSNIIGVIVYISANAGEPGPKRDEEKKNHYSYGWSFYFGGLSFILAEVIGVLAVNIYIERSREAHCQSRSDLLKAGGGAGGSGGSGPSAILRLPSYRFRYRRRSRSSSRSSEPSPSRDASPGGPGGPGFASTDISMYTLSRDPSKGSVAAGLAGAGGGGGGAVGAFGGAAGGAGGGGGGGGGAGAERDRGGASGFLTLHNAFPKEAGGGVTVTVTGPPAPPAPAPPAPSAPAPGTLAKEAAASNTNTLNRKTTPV

Structure (SMILES)	IC50	pIC50
CCc1nc2c(CC)cc(C(F)(F)F)c(-c3cc(C)c4[nH]ncc4c3)n2n1 [Example 90, 2,8-Diethyl-5-(7-methyl-1H-indazol-5-yl)-6-(trifluoromethyl)-[1,2,4]triazolo[1,5-a]pyridine]	3.16 nM	–
CCCc1nc2c(Cl)cc(C(F)(F)F)c(-c3cc(Cl)c4c(c3)CC(=O)N4)n2n1 [Example 97, 7-Chloro-5-(8-chloro-2-propyl-6-(trifluoromethyl)-[1,2,4]triazolo[1,5-a]pyridin-5-yl)indolin-2-one]	0.501 nM	–
CCCc1nc2c(Cl)cc(C(F)(F)F)c(-c3cc(C)c4c(c3)CC(=O)N4)n2n1 [Example 98, 5-(8-Chloro-2-propyl-6-(trifluoromethyl)-[1,2,4]triazolo[1,5-a]pyridin-5-yl)-7-methylindolin-2-one]	0.794 nM	–
Cc1cc(-c2c(C(F)(F)F)cc(C)c3nc(C4CC4)nn23)cc2c1NC(=O)C2 [Example 99, 5-(2-Cyclopropyl-8-methyl-6-(trifluoromethyl)-[1,2,4]triazolo[1,5-a]pyridin-5-yl)-7-methylindolin-2-one]	0.251 nM	–
CCc1nc2c(C)cc(C(F)(F)F)c(-c3cc(Cl)c4c(c3)CC(=O)N4)n2n1 [Example 100, 7-Chloro-5-(2-ethyl-8-methyl-6-(trifluoromethyl)-[1,2,4]triazolo[1,5-a]pyridin-5-yl)indolin-2-one]	0.631 nM	–
CCc1nc2c(C)cc(C(F)(F)F)c(-c3cc(C(F)(F)F)c4[nH]ncc4c3)n2n1 [Example 101, 2-Ethyl-8-methyl-6-(trifluoromethyl)-5-(7-(trifluoromethyl)-1H-indazol-5-yl)-[1,2,4]triazolo[1,5-a]pyridine]	0.316 nM	–
CCc1nc2c(C)cc(C(F)(F)F)c(-c3cc4c(c(C(F)(F)F)c3)NC(=O)C4)n2n1 [Example 102, 5-(2-Ethyl-8-methyl-6-(trifluoromethyl)-[1,2,4]triazolo[1,5-a]pyridin-5-yl)-7-(trifluoromethyl)indolin-2-one]	1.58 nM	–
Cc1cc(C(F)(F)F)c(-c2cc(Cl)c3c(c2)CC(=O)N3)n2nc(C(F)(F)F)nc12 [Example 103]	0.158 nM	–
CCc1cc(-c2c(C(F)(F)F)cc(C)c3nc(C(F)(F)F)nn23)cc2c1NC(=O)C2 [Example 104, 7-Ethyl-5-(8-methyl-2,6-bis(trifluoromethyl)-[1,2,4]triazolo[1,5-a]pyridin-5-yl)indolin-2-one]	0.158 nM	–
Cc1cc(-c2c(C(F)(F)F)cc(C)c3nc(C(F)(F)F)nn23)cc2c1NC(=O)C2 [Example 105, 7-Methyl-5-(8-methyl-2,6-bis(trifluoromethyl)-[1,2,4]triazolo[1,5-a]pyridin-5-yl)indolin-2-one]	0.316 nM	–
COc1cc(-c2c(C(F)(F)F)cc(C)c3nc(C(F)(F)F)nn23)cc2c1NC(=O)C2 [Example 106, 7-Methoxy-5-(8-methyl-2,6-bis(trifluoromethyl)-[1,2,4]triazolo[1,5-a]pyridin-5-yl)indolin-2-one]	1.26 nM	–
Cc1cc(-c2c(C(F)(F)F)cc(C)c3nc(C(F)(F)F)nn23)cc2cn[nH]c12 [Example 107, 8-Methyl-5-(7-methyl-1H-indazol-5-yl)-2,6-bis(trifluoromethyl)-[1,2,4]triazolo[1,5-a]pyridine]	0.501 nM	–
Cc1cc(C(F)(F)F)c(-c2cc(C#N)c3c(c2)CC(=O)N3)n2nc(C(F)(F)F)nc12 [Example 108, 5-(8-Methyl-2,6-bis(trifluoromethyl)-[1,2,4]triazolo[1,5-a]pyridin-5-yl)-2-oxoindoline-7-carbonitrile]	3.98 nM	–
Cc1cc(C(F)F)c(-c2cc(Cl)c3c(c2)CC(=O)N3)n2nc(C(F)(F)F)nc12 [Example 110, 7-Chloro-5-(6-(difluoromethyl)-8-methyl-2-(trifluoromethyl)-[1,2,4]triazolo[1,5-a]pyridin-5-yl)indolin-2-one]	0.794 nM	–
Cc1cc(-c2c(C(F)F)cc(C)c3nc(C(F)(F)F)nn23)cc2cn[nH]c12 [Example 111, 6-(Difluoromethyl)-8-methyl-5-(7-methyl-1H-indazol-5-yl)-2-(trifluoromethyl)-[1,2,4]triazolo[1,5-a]pyridine]	0.794 nM	–

Further lines, results first:

IC50	pIC50	Structure (SMILES)
0.501 nM	–	CCc1cc(C(F)F)c(-c2cc(Cl)c3[nH]ncc3c2)n2nc(C(F)(F)F)nc12 [Example 91, 5-(7-Chloro-1H-indazol-5-yl)-6-(difluoromethyl)-8-ethyl-2-(trifluoromethyl)-[1,2,4]triazolo[1,5-a]pyridine]
1 nM	–	CCc1cc(C(F)F)c(-c2cc(C)c3[nH]ncc3c2)n2nc(C(F)(F)F)nc12 [Example 92, 6-(Difluoromethyl)-8-ethyl-5-(7-methyl-1H-indazol-5-yl)-2-(trifluoromethyl)-[1,2,4]triazolo[1,5-a]pyridine]
0.158 nM	–	CCc1cc(C(F)F)c(-c2cc(Cl)c3[nH]ncc3c2)n2nc(C3CC3)nc12 [Example 93, 5-(7-Chloro-1H-indazol-5-yl)-2-cyclopropyl-6-(difluoromethyl)-8-ethyl-[1,2,4]triazolo[1,5-a]pyridine]
0.398 nM	–	CCc1cc(C(F)F)c(-c2cc(C)c3[nH]ncc3c2)n2nc(C3CC3)nc12 [Example 94, 2-Cyclopropyl-6-(difluoromethyl)-8-ethyl-5-(7-methyl-1H-indazol-5-yl)-[1,2,4]triazolo[1,5-a]pyridine]
3.16 nM	–	CCCc1nc2c(C)cc(C(F)F)c(-c3cc(C)c4[nH]ncc4c3)n2n1 [Example 95, 6-(Difluoromethyl)-8-methyl-5-(7-methyl-1H-indazol-5-yl)-2-propyl-[1,2,4]triazolo[1,5-a]pyridine]
0.398 nM	–	CCCc1nc2c(Cl)cc(C(F)(F)F)c(-c3cc(Cl)c4[nH]ncc4c3)n2n1 [Example 96, 8-Chloro-5-(7-chloro-1H-indazol-5-yl)-2-propyl-6-(trifluoromethyl)-[1,2,4]triazolo[1,5-a]pyridine]
–	9.6	Cc1cc(C(F)F)c(-c2cc(Cl)c3[nH]ncc3c2)n2nc(C(F)(F)F)nc12 [Example 109, 5-(7-Chloro-1H-indazol-5-yl)-6-(difluoromethyl)-8-methyl-2-(trifluoromethyl)-[1,2,4]triazolo[1,5-a]pyridine]
0.1 nM	–	Cc1cc(C(F)F)c(-c2cc(Cl)c3[nH]ncc3c2)n2nc(C3CC3)nc12 [Example 112, 5-(7-Chloro-1H-indazol-5-yl)-2-cyclopropyl-6-(difluoromethyl)-8-methyl-[1,2,4]triazolo[1,5-a]pyridine]
0.316 nM	–	Cc1cc(C(F)F)c(-c2cc(Cl)c3c(c2)CC(=O)N3)n2nc(C3CC3)nc12 [Example 113, 7-Chloro-5-(2-cyclopropyl-6-(difluoromethyl)-8-methyl-[1,2,4]triazolo[1,5-a]pyridin-5-yl)indolin-2-one]
0.398 nM	–	Cc1cc(-c2c(C(F)F)cc(C)c3nc(C4CC4)nn23)cc2cn[nH]c12 [Example 114, 2-Cyclopropyl-6-(difluoromethyl)-8-methyl-5-(7-methyl-1H-indazol-5-yl)-[1,2,4]triazolo[1,5-a]pyridine]
2 nM	–	CCc1nc2c(C)cc(C(F)F)c(-c3cc(Cl)c4[nH]ncc4c3)n2n1 [Example 115, 5-(7-Chloro-1H-indazol-5-yl)-6-(difluoromethyl)-2-ethyl-8-methyl-[1,2,4]triazolo[1,5-a]pyridine]
2.51 nM	–	Cc1nc2c(C)cc(C(F)(F)F)c(-c3cc(Cl)c4[nH]ncc4c3)n2n1 [Example 116, 5-(7-Chloro-1H-indazol-5-yl)-2,8-dimethyl-6-(trifluoromethyl)-[1,2,4]triazolo[1,5-a]pyridine]
